The text below walks through data of patent publication EP4559927A1, “CARRIER PEPTIDE FRAGMENT AND USE THEREOF” (Toagosei Co., Ltd., priority 2022, dated 2025).

The assay deals with NSC-34 cells. The assay can be described thus: Evaluation on cell membrane permeability by flow cytometry. It counts as cell-based, mouse. The following applies: median fluorescence intensity of FAM (detector FL2), 25 µM construct, 0.42% DMSO, 20 hours at 37°C, 5% CO2. On the procedure:
As the eukaryotic cells, NSC-34 cells (mouse motor neuron-like hybrid cell line) were used and the cell membrane permeability of the samples 1 to 7 was analyzed. In Examples 1 to 7, the prepared sample solutions 1 to 7 were used, respectively, and in Example 8, a FAM solution was used.
The NSC-34 cells were cultured in 10% fetal bovine serum (FBS)-containing Dulbecco's modified Eagle's medium (DMEM (Cat No. 044-29765, manufactured by FUJIFILM Wako Pure Chemical Corporation)), which is a normal culture medium.
The NSC-34 cells that adhered to a culture plate were cleaned with PBS and then, a 0.25%-trypsin/EDTA solution was added thereto, and incubation was performed for three minutes at 37°C. After the incubation, the aforementioned 10% FBS-containing DMEM was added to deactivate trypsin and then, five-minute centrifugal separation was performed at 150 × g to precipitate the cells. After the supernatant generated by the centrifugal separation was removed, the 10% FBS-containing DMEM was added to the precipitate (cell pellet) to prepare a cell suspension of about 2 × 10^5 cells/mL. The cell suspension was added by 1 mL to a well of a commercially available six-hole (well) plate (manufactured by AGC TECHNO GLASS Co., Ltd.) so as to seed the cell (about 2 × 10^5 cells/well). In addition, the 6 mM sample solution 1 was diluted with the 10% FBS-containing DMEM to prepare the sample solution 1 in which the concentration of the sample 1 was 50 µM. Then, 1 mL of the 50 µM sample solution 1 was added to the well (that is, so that the concentration of the sample 1 became 25 µM and the DMSO concentration became 0.42% in the culture solution in the well). After that, the cell was incubated for 20 hours at 37°C under a 5% CO2 condition.
After the 20-hour incubation, the culture supernatant was removed from the well and the cells in the well were cleaned twice with 1 mL of PBS. Next, 200 µL of the 0.25% trypsin/EDTA solution was added to the well and the incubation was performed for three minutes at 37°C. After the incubation, 400 µL of the 10% FBS-containing DMEM was added to the well to deactivate the trypsin. Subsequently, the cell suspension in the well was transferred to a tube and the cells were collected. After that, 600 µL of PBS was added further to the well to clean the well. Then, PBS in the well was transferred to the tube, so that the cells remaining in the well were collected in the tube. This tube was subjected to five-minute centrifugal separation at 4°C under a condition of 210 × g. After the centrifugal separation, the supernatant was removed and the precipitate (cell pellet) was suspended (cleaned) with 1 mL of PBS, which was followed by the centrifugal separation under the same condition as that described above. After this operation was repeated twice, the supernatant was removed and thus, the cells (cell pellet) cultured in a culture medium containing the sample 1 were obtained.
Regarding the obtained cells (cell pellet), the cell membrane permeability of the sample 1 was analyzed using a flow cytometer. As the flow cytometer, On-Chip Flowcytometer (manufactured by On-Chip Biotechnologies Co., LTD.) was used.
For such an analysis, the obtained cell pellet was suspended with 100 µL of on-chip T buffer to prepare a cell suspension for analysis.
Using the aforementioned flow cytometer, gating based on forward scatter (FSC) and side scatter (SSC) was performed to set a gate about a cell group to be analyzed, and the fluorescence intensity was measured about the cell group in this gate. Note that the analysis was performed so that the cell group contained at least 10000 cells or more. The fluorescence intensity was measured using a fluorescence detector FL2 of the flow cytometer (optimum detection wavelength around 543 nm) capable of detecting the fluorescence wavelength of FAM. […]

Primed or numbered codes have the meaning given here. FAM = 5(6)-carboxyfluorescein; FAM″ = C-terminal FAM dye

In turn, “Ac-KKRTLRKDERKKR-FAM (Ac-KKRTLRKDERKKR-{FAM}) [Example 1]” displayed an MFI of 16.3.

Turning to “Ac-KKRTLRKEDEDRKKR-FAM (Ac-KKRTLRKEDEDRKKR-{FAM″}) [Example 3]”, the MFI turned out to be 13.8.

In turn, “Ac-KKRTLRKDDEERKKR-FAM (Ac-KKRTLRKDDEERKKR-{FAM}) [Example 5]” registered an MFI of 14.8.

“Ac-KKRTLRKEDRKKR-FAM (Ac-KKRTLRKEDRKKR-{FAM}) [Example 2]” came in with an MFI of 15.7.

Consider 5(6)-carboxyfluorescein [Example 8], for which the MFI was found to be 11.

The substance Ac-KKRTLRKDEDERKKR-FAM [Example 6] gave an MFI of 15.2.

As for “Ac-KKRTLRKEDEDEDRKKR-FAM (Ac-KKRTLRKEDEDEDRKKR-{FAM}) [Example 7]”, the MFI is 14.3.

In the case of “Ac-KKRTLRKEEDDRKKR-FAM (Ac-KKRTLRKEEDDRKKR-{FAM}) [Example 4]”, the MFI was determined as 14.3.
